Measurements: patent US20210332139A1, “MODULATION OF LEUKOCYTE ACTIVITY IN TREATMENT OF NEUROINFLAMMATORY DEGENERATIVE DISEASE” (Leuvas Therapeutics, priority 2013, published 2021)

How the values were obtained:
human primary PMNs = assay: Static adhesion of human primary PMNs to ICAM-1 with signaling inhibitors; assay type: cell-based; conditions: for Adherent hPMNs to ICAM-1, n.t. (resting), Mean / Adherent hPMNs to ICAM-1, fMLP, Mean / Adherent hPMNs to ICAM-1, Aβ oligo, Mean: 30 min; for Adherent hPMNs to ICAM-1, fMLP, Mean: then 50 nM fMLP 1 min; for Adherent hPMNs to ICAM-1, Aβ oligo, Mean: then 10 μM Aβ 1 min; for Blockade of Aβ-induced adhesion of human neutrophils: result in words
Method: As a model system, human primary PMNs were isolated form healthy donors stimulated to very rapid adhesion to purified human ICAM-1, ligand for the β2 integrins LFA-1 and Maci. fMLP (the classical chemoattractant) was the positive control. […] PMNs were treated for 30 min. with different concentrations of inhibitors followed by stimulation for 1 min with 50 nM fMLP or with 10 μM Aβ. The number of adherent cells was quantified by computer-assisted evaluation. Statistical analysis was SD.

human neutrophils [1] = assay: Isoluminol chemiluminescence ROS assay, human neutrophils; assay type: cell-based; conditions: result in words
Method: One of the mechanisms of neuronal damage by beta-amyloid in Alzheimer's disease is the generation of reactive oxygen species (ROS). We determined whether Aβ1-42 oligomers induce ROS production in neutrophils by using a chemiluminescence assay.
(§1) Isoluminol-based chemiluminescence assays were performed in HGCa in the presence of horseradish peroxidase (HRP) and isoluminol (both from Sigma-Aldrich) in a temperature-controlled Multilabel Count Victor X5 (Perkin Elmer). Assays were run in dark 96 well plates precoated with 250 μg/ml human fibrinogen in HGCa containing (final concentration): 100 μM isoluminol and 8 U/ml HRP. After addition of 1×10^5 human neutrophils or 7.5×10^5 mouse neutrophils, plates were left at 37° C. for 5-10 min and the reaction started by addition of the stimulus. Light emission was recorded every minute.
(§2) We used the chemotactic peptide fMLP as positive control. […] Data are mean+/−SD for three independent experiments.

neutrophils = assay: Rapid adhesion of neutrophils, soluble versus fibrillary Aβ1-42; assay type: cell-based; conditions: 30 μM, mean+/−SD
Source text: Although two-times less efficient than the soluble form, fibrillary Aβ triggered a significant increase of rapid neutrophil adhesion on both ICAM-1 and fibrinogen (Table 8; data are expressed as the mean+/−SD of bound cells in 0.2 mm^2 from three independent experiments made in duplicate).

mouse neutrophils = assay: Isoluminol chemiluminescence ROS assay, mouse neutrophils; assay type: cell-based; conditions: mean+/−SD
Method: as §1, §2
Data are mean+/−SD counts per second.

[2] = test system: Bend.3 endothelial cell line; assay: Adhesion molecule expression on Bend.3 endothelial cells (immunofluorescence); assay type: cell-based, mouse; set-up: key: −: VCAM-1 and selectins were not expressed (indicated by -, Table 2); constitutively expressed at low levels on endothelial cells (indicated by +/−, some vessels were positive for ICAM-1, Table 2); an increase of ICAM-1 expression (indicated by +, Table 2); conditions: Bend.3 cells, 25 U/ml TNFα, 18 h, positive control
Method: We performed in vitro experiments to study the effect of soluble Aβ1-42 oligomers on the endothelial cell line Bend.3, derived from mouse cerebral cortex purchased by ATCC& Cell Biology Collection (CRL-2299TM).
Briefly, Bend.3 were cultured at a concentration of 20×10^3/ml on a glass coverslip in 24-well plates containing DMEM supplemented with 10% Fetal Calf Serum (FCS). Cells were stimulated with 10 μM Aβ 1-42, for 18 h in DMEM with 1% FCS. […] positive control, cells were treated with 25 U/ml of TNFα for 18 h in DMEM with 1% FCS. Bend.3 were rinsed with PBS and fixed with 4% PFA for 10 minutes. Cells were washed with PBS incubated with blocking buffer for 1 h at RT° C. Primary antibodies were diluted in 1% Bovine Serum Albumin (BSA) PBS. Cells were incubated overnight at 4° C. with 50 μg/ml anti-VCAM (hybridoma MK2.7), 10 μg/ml anti-ICAM (hybridoma YN1.7), 0.5 μg/ml anti-CD31 (370700, Invitrogen), 5 μg/ml anti-E-selectin (hybridoma RME-1) and 1.5 μg/ml anti-P-selectin (CD62P, BD Pharmigen). The day after, cells were rinsed 2 times with PBS and then incubated with 7.5 μg/ml biotinylated secondary antibody (rabbit anti-rat, T0226, VectorLab) for 1 h at RT° C. Cells were rinsed 2 times with PBS and incubated with 25 μg/ml Avidin-TexasRed (A2006, Vector Lab) for 1 h at RT° C. in the dark. After rinsing in PBS, cells were incubated with 1 μg/ml Dapi (D9542, Sigma-Aldrich, St. Louis, Mo.), for 5 minutes in the dark. Finally, glass coverslip was transferred on glass slides and mounted with Dako medium (S3023, DAKO NORTH AMERICA, Carpinteria, Calif.). Glass slides were kept at 4° C. in the dark and acquired by LEICA fluorescence microscopy (DM6000B, LEICA, Germany).
We analyzed the expression of VCAM-1, ICAM-1, E- and P-selectin on Bend.3 after Aβ1-42 oligomers stimulation. TNF-α stimulation, which is well known to up-regulate the adhesion molecules expression, was used as positive control. We evaluated a dose-response effect of Aβ1-42 soluble oligomers on Bend.3 cells, ranging from 1 to 10 μM after 6 or 18 hours of treatment. After 18 h of treatment with 10 μM Aβ we observed a significant up-regulation of […] compared to non-stimulated control cells (CTRL) (Table 2). […] ICAM-1 was constitutively expressed at low levels on endothelial cells (indicated by +/−, some vessels were positive for ICAM-1, Table 2), but 18 h treatment with Aβ1-42 led to an increase of ICAM-1 expression (indicated by +, Table 2).

human neutrophils [3] = assay: Rapid human neutrophil adhesion to ICAM-1, inhibition by bocMLF and PTx; assay type: cell-based
Method: It is known that one of the receptors for Aβ is the receptor for fMLP, formylpeptide chemotactic receptor (FPR). To evaluate the contribution of this GPCR receptor on Aβ-dependent neutrophil adhesion, we inhibited its function using boc-MLF, a formyl-peptide chemotactic receptor antagonist. Human neutrophils were incubated for 2 minutes with buffer (control) or with oligomeric Aβ. 0.1 μM fMLP was used as a positive control. Values are expressed as the mean counts of bound cells in 0.2 mm^2 from three independent experiments in duplicate. Error bars represent SD. […] To exclude the possibility that rapid adhesion triggering was a consequence of a generic plasma membrane alteration due to the lipophilic nature of Aβ, we evaluated rapid adhesion in lymphocytes, which are known to lack fMLP receptors.

N#C/C(=C/c1ccc(O)c(O)c1)C(=O)NCc1ccccc1 [AG490]
Adherent hPMNs to ICAM-1, n.t. (resting), Mean (human primary PMNs; inhibitor 200 μM): 23.2 | Adherent hPMNs to ICAM-1, fMLP, Mean (human primary PMNs; inhibitor 200 μM): 274.5 | Adherent hPMNs to ICAM-1, Aβ oligo, Mean (human primary PMNs; inhibitor 200 μM): 258.6 | Blockade of Aβ-induced adhesion of human neutrophils (human primary PMNs): can block

COc1cc(Nc2c(C#N)cnc3cc(OCCCN4CCN(C)CC4)c(OC)cc23)c(Cl)cc1Cl [Bosutinib, bosutinib]
Adherent hPMNs to ICAM-1, n.t. (resting), Mean (human primary PMNs; inhibitor 100 μM): 19.3 | Adherent hPMNs to ICAM-1, fMLP, Mean (human primary PMNs; inhibitor 100 μM): 98.2 | Adherent hPMNs to ICAM-1, Aβ oligo, Mean (human primary PMNs; inhibitor 100 μM): 95.1

C[C@@H]1CCN(C(=O)CC#N)C[C@@H]1N(C)c1ncnc2[nH]ccc12 [CP-690550]
Adherent hPMNs to ICAM-1, n.t. (resting), Mean (human primary PMNs; inhibitor 200 μM): 22.1 | Adherent hPMNs to ICAM-1, fMLP, Mean (human primary PMNs; inhibitor 200 μM): 209.6 | Adherent hPMNs to ICAM-1, Aβ oligo, Mean (human primary PMNs; inhibitor 200 μM): 172.4 | Blockade of Aβ-induced adhesion of human neutrophils (human primary PMNs): can block

c1ccc2c(c1)[I+]c1ccccc1-2 [DPI]
Effect on fMLP and Aβ1-42 ROS responses (human neutrophils [1]): suppressed

Cc1nc(Nc2ncc(C(=O)Nc3c(C)cccc3Cl)s2)cc(N2CCN(CCO)CC2)n1 [Dasatinib, dasatinib]
Adherent hPMNs to ICAM-1, n.t. (resting), Mean (human primary PMNs; inhibitor 20 μM): 24.9 | Adherent hPMNs to ICAM-1, fMLP, Mean (human primary PMNs; inhibitor 20 μM): 230.8 | Adherent hPMNs to ICAM-1, Aβ oligo, Mean (human primary PMNs; inhibitor 20 μM): 227.5

NC(=O)c1cccc(-c2cc(Nc3ccc(OC(F)(F)F)cc3)ncn2)c1 [GNF-2]
Adherent hPMNs to ICAM-1, n.t. (resting), Mean (human primary PMNs; inhibitor 100 μM): 25.2 | Adherent hPMNs to ICAM-1, fMLP, Mean (human primary PMNs; inhibitor 100 μM): 144.2 | Adherent hPMNs to ICAM-1, Aβ oligo, Mean (human primary PMNs; inhibitor 100 μM): 115.5 | Blockade of Aβ-induced adhesion of human neutrophils (human primary PMNs): can block

C=CC(=O)N1CCC[C@@H](n2nc(-c3ccc(Oc4ccccc4)cc3)c3c(N)ncnc32)C1 [Ibrutinib, ibrutinib]
Adherent hPMNs to ICAM-1, n.t. (resting), Mean (human primary PMNs; inhibitor 100 μM): 21.9 | Adherent hPMNs to ICAM-1, fMLP, Mean (human primary PMNs; inhibitor 100 μM): 80.0 | Adherent hPMNs to ICAM-1, Aβ oligo, Mean (human primary PMNs; inhibitor 100 μM): 78.0

Cc1ccc(NC(=O)c2ccc(CN3CCN(C)CC3)cc2)cc1Nc1nccc(-c2cccnc2)n1 [Imatinib, imatinib]
Adherent hPMNs to ICAM-1, n.t. (resting), Mean (human primary PMNs; inhibitor 100 μM): 23.5 | Adherent hPMNs to ICAM-1, fMLP, Mean (human primary PMNs; inhibitor 100 μM): 124.9 | Adherent hPMNs to ICAM-1, Aβ oligo, Mean (human primary PMNs; inhibitor 100 μM): 109.3 | Blockade of Aβ-induced adhesion of human neutrophils (human primary PMNs): can block

Oc1cc(O)cc(/C=C/c2ccc(O)c(O)c2)c1 [Piceatannol, piceatannol]
Adherent hPMNs to ICAM-1, n.t. (resting), Mean (human primary PMNs; inhibitor 50 μM): 21.0 | Adherent hPMNs to ICAM-1, fMLP, Mean (human primary PMNs; inhibitor 50 μM): 218.7 | Adherent hPMNs to ICAM-1, Aβ oligo, Mean (human primary PMNs; inhibitor 50 μM): 276.1

N#CC[C@H](C1CCCC1)n1cc(-c2ncnc3[nH]ccc23)cn1 [Ruxolitinib, ruxolitinib]
Adherent hPMNs to ICAM-1, n.t. (resting), Mean (human primary PMNs; inhibitor 100 μM): 17.0 | Adherent hPMNs to ICAM-1, fMLP, Mean (human primary PMNs; inhibitor 100 μM): 243.8 | Adherent hPMNs to ICAM-1, Aβ oligo, Mean (human primary PMNs; inhibitor 100 μM): 244.5

Cc1cnc(Nc2ccc(OCCN3CCCC3)cc2)nc1Nc1cccc(S(=O)(=O)NC(C)(C)C)c1 [TG101348]
Adherent hPMNs to ICAM-1, n.t. (resting), Mean (human primary PMNs; inhibitor 100 μM): 20.1 | Adherent hPMNs to ICAM-1, fMLP, Mean (human primary PMNs; inhibitor 100 μM): 147.2 | Adherent hPMNs to ICAM-1, Aβ oligo, Mean (human primary PMNs; inhibitor 100 μM): 134.8 | Blockade of Aβ-induced adhesion of human neutrophils (human primary PMNs): can block

COc1cc2ncnc(Nc3ccc(O)c(Br)c3)c2cc1OC [WHI-P154]
Adherent hPMNs to ICAM-1, n.t. (resting), Mean (human primary PMNs; inhibitor 100 μM): 23.5 | Adherent hPMNs to ICAM-1, fMLP, Mean (human primary PMNs; inhibitor 100 μM): 207.8 | Adherent hPMNs to ICAM-1, Aβ oligo, Mean (human primary PMNs; inhibitor 100 μM): 218.8 | Blockade of Aβ-induced adhesion of human neutrophils (human primary PMNs): can block

Fib Abeta: fibrillary form of Aβ1-42 peptide
Rapid adhesion to Fibrinogen (neutrophils): 171 ± 21.8 bound cells in 0.2 mm^2 | Rapid adhesion to ICAM-1 (neutrophils): 457.3 ± 45.54 bound cells in 0.2 mm^2

TNF-a
ROS generation (chemiluminescence) (mouse neutrophils; 1 min): 38 ± 20 counts per second | ROS generation (chemiluminescence) (mouse neutrophils; 2 min): 62 ± 21 counts per second | ROS generation (chemiluminescence) (mouse neutrophils; 3 min): 102 ± 28 counts per second | ROS generation (chemiluminescence) (mouse neutrophils; 4 min): 136 ± 26 counts per second | ROS generation (chemiluminescence) (mouse neutrophils; 5 min): 187 ± 14 counts per second | CD31 expression (endothelial cell marker) [2]: + | E-sel expression [2]: + | ICAM-1 expression [2]: + | P-sel expression [2]: + | VCAM-1 expression [2]: +

bocMLF
Neutrophil adhesion to ICAM-1 after inhibitor pre-treatment (human neutrophils [3]; buffer (control), no stimulus): 17.3 ± 6.6 bound cells in 0.2 mm^2 | Neutrophil adhesion to ICAM-1 after inhibitor pre-treatment (human neutrophils [3]; stimulated 2 minutes with oligomeric Aβ): 74.8 ± 25.5 bound cells in 0.2 mm^2 | Neutrophil adhesion to ICAM-1 after inhibitor pre-treatment (human neutrophils [3]; stimulated with 0.1 μM fMLP): 69 ± 26.5 bound cells in 0.2 mm^2 | Adherent hPMNs to ICAM-1, n.t. (resting), Mean (human primary PMNs; inhibitor 100 μM): 20.1 | Adherent hPMNs to ICAM-1, fMLP, Mean (human primary PMNs; inhibitor 100 μM): 55.0 | Adherent hPMNs to ICAM-1, Aβ oligo, Mean (human primary PMNs; inhibitor 100 μM): 81.8 | Blockade of Aβ-induced adhesion of human neutrophils (human primary PMNs): inhibits
